Inconclusive results and toxic doses are left out.
System: L1210 leukemia ip in BDF1 mice, survival T/C
Assay: NCI In Vivo Anticancer Drug Screen. Data for tumor model L1210 Leukemia (intraperitoneal) in B6D2F1 (BDF1) mice
Conditions: endpoint: mean survival time, higher = longer survival
Procedure, shortened: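 Antitumor effect is assessed in tumor-bearing animals. Survival in the compound arm is compared with a vehicle-dosed control arm and expressed as their quotient.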

[1] = dose: 100.0 mg/kg/injection, schedule: Q01DX009 (ip), vehicle: saline with Tween-80
[2] = dose: 200.0 mg/kg/injection, schedule: Q01DX009 (ip), vehicle: saline with Tween-80
[3] = dose: 400.0 mg/kg/injection, schedule: Q01DX009 (ip), vehicle: saline with Tween-80

With `C/C(N)=N\O` the T/C (dose: 100.0 mg/kg/injection, schedule: Q04DX002 (ip), vehicle: saline) was 105 % of control, the T/C (dose: 200.0 mg/kg/injection, schedule: Q04DX002 (ip), vehicle: saline) was 102 % of control and the T/C (dose: 400.0 mg/kg/injection, schedule: Q04DX002 (ip), vehicle: saline) was 105 % of control.
For `Cc1cc(C(=O)Nc2ccc(C3=NCCN3)cc2)ccc1C(=O)Nc1ccc(C2=NCCN2)cc1`, the T/C (dose: 3.75 mg/kg/injection, schedule: Q01DX Z (ip), vehicle: saline) was 98 % of control, the T/C (dose: 7.5 mg/kg/injection, schedule: Q01DX Z (ip), vehicle: saline) was 102 % of control and the T/C (dose: 15.0 mg/kg/injection, schedule: Q01DX Z (ip), vehicle: saline) was 119 % of control. For the same compound, the T/C (dose: 60.0 mg/kg/injection, schedule: Q01DX Z (ip), vehicle: saline) was 196 % of control, the T/C (dose: 120.0 mg/kg/injection, schedule: Q01DX Z (ip), vehicle: saline) was 157 % of control and the T/C (dose: 240.0 mg/kg/injection, schedule: Q01DX Z (ip), vehicle: saline) was 175 % of control.
`O=C(Nc1ccccc1F)c1ccc(Cl)c(Cl)c1` was tested, and the T/C (dose: 100.0 mg/kg/injection, schedule: Q04DX003 (ip), vehicle: Klucel (hydroxypropylcellulose) (HPC)) was 98 % of control, the T/C (dose: 200.0 mg/kg/injection, schedule: Q01DX009 (ip), vehicle: Klucel (hydroxypropylcellulose) (HPC)) was 92 % of control and the T/C (dose: 200.0 mg/kg/injection, schedule: Q04DX003 (ip), vehicle: Klucel (hydroxypropylcellulose) (HPC)) was 96 % of control. The T/C (dose: 400.0 mg/kg/injection, schedule: Q01DX009 (ip), vehicle: Klucel (hydroxypropylcellulose) (HPC)) was 86 % of control and the T/C (dose: 400.0 mg/kg/injection, schedule: Q04DX003 (ip), vehicle: Klucel (hydroxypropylcellulose) (HPC)) was 93 % of control.
`OCCNCc1cccc(-c2ccccc2)c1O` was tested, and the T/C [1] was 93 % of control, the T/C [2] was 87 % of control and the T/C [3] was 101 % of control.
`Cc1cc(SC#N)ccc1O` was tested, and the T/C (dose: 3.0 mg/kg/injection, schedule: Q01DX009 (ip), vehicle: saline with Tween-80) was 94 % of control, the T/C (dose: 6.0 mg/kg/injection, schedule: Q01DX009 (ip), vehicle: saline with Tween-80) was 102 % of control and the T/C (dose: 12.0 mg/kg/injection, schedule: Q01DX009 (ip), vehicle: saline with Tween-80) was 102 % of control. For the same compound, the T/C (dose: 25.0 mg/kg/injection, schedule: Q01DX009 (ip), vehicle: saline with Tween-80) was 102 % of control, the T/C (dose: 25.0 mg/kg/injection, schedule: Q04DX002 (ip), vehicle: other) was 93 % of control and the T/C (dose: 50.0 mg/kg/injection, schedule: Q04DX002 (ip), vehicle: other) was 93 % of control. The T/C (dose: 100.0 mg/kg/injection, schedule: Q04DX002 (ip), vehicle: other) was 97 % of control.
`CCC1CCCCC1=O` (stereo not given) was tested, and the T/C [1] was 98 % of control, the T/C (dose: 100.0 mg/kg/injection, schedule: Q04DX003 (ip), vehicle: saline with Tween-80) was 110 % of control and the T/C [2] was 97 % of control. For the same compound, the T/C (dose: 200.0 mg/kg/injection, schedule: Q04DX003 (ip), vehicle: saline with Tween-80) was 111 % of control, the T/C [3] was 101 % of control and the T/C (dose: 400.0 mg/kg/injection, schedule: Q04DX003 (ip), vehicle: saline with Tween-80) was 94 % of control.
With `CN(C)c1ccc(/C=N/NC(=O)C(O)C(O)C(O)C(O)CO)c(Cl)c1` (stereo not given) the T/C (dose: 100.0 mg/kg/injection, schedule: Q04DX002 (ip), vehicle: saline with Tween-80) was 98 % of control, the T/C (dose: 200.0 mg/kg/injection, schedule: Q04DX002 (ip), vehicle: saline with Tween-80) was 91 % of control and the T/C (dose: 400.0 mg/kg/injection, schedule: Q04DX002 (ip), vehicle: saline with Tween-80) was 88 % of control.
With `N#CN(Cc1ccc(Cl)cc1Cl)C(=O)OCOc1ccc(Cl)cc1` the T/C [1] was 91 % of control, the T/C [2] was 96 % of control and the T/C [3] was 107 % of control.
For `CN1C(CSCC(F)(F)F)Nc2cc(Cl)c(S(N)(=O)=O)cc2S1(=O)=O` (stereo not given), the T/C (dose: 100.0 mg/kg/injection, schedule: Q01DX001 (ip), vehicle: carboxymethylcellulose (CMC)) was 108 % of control, the T/C (dose: 200.0 mg/kg/injection, schedule: Q01DX001 (ip), vehicle: carboxymethylcellulose (CMC)) was 106 % of control and the T/C (dose: 400.0 mg/kg/injection, schedule: Q01DX001 (ip), vehicle: carboxymethylcellulose (CMC)) was 103 % of control.
With `O=S1(=O)CC(c2ccc(Br)cc2)Nc2ccccc21` (stereo not given) the T/C (dose: 100.0 mg/kg/injection, schedule: Q01DX001 (ip), vehicle: saline) was 98 % of control, the T/C (dose: 100.0 mg/kg/injection, schedule: Q04DX003 (ip), vehicle: acetone) was 97 % of control and the T/C (dose: 200.0 mg/kg/injection, schedule: Q01DX001 (ip), vehicle: saline) was 101 % of control. The T/C (dose: 200.0 mg/kg/injection, schedule: Q04DX003 (ip), vehicle: acetone) was 100 % of control, the T/C (dose: 400.0 mg/kg/injection, schedule: Q01DX001 (ip), vehicle: saline) was 98 % of control and the T/C (dose: 400.0 mg/kg/injection, schedule: Q04DX003 (ip), vehicle: acetone) was 100 % of control.

From PubChem BioAssay AID248 (DTP/NCI, 2004)
